Assay results as given in article PMC10669426, “Exploring the Use of Hydroxytyrosol and Some of Its Esters in Food-Grade Nanoemulsions: Establishing Connection between Structure and Efficiency” (Antioxidants, 2023).

Key:
[1] = DPPH radical assay, EC50 values at different reaction times; type: biochemical; details: T = 25 °C
Protocol: To check if the same insignificant changes hold for HT derivatives, we further tested the point by determining the EC50 values for the different HT derivatives. A UV-Vis Powerwave XS Microplate Reader (96-well microplate, Bio-Tek Instruments, Inc., Winooski, VT, USA) was employed to monitor the loss of DPPH^● (from reaction with each AO) at T = 25.0 ± 0.1 °C. The absorbance of each well was recorded (λ = 515 nm) at 60 s intervals for a 4000 s period, Figure 3.
Each set of experiments was performed in triplicate and, in some instances, in quadruplicate, and the reported EC50 values in Table 1 (determined from data in Figure 3) are the average of these repetitions.

[2] = Relative oxidative stability of fish oil nanoemulsions, formation of conjugated dienes (AOCS Ti-1a-64); details: for antioxidant efficiency order (time needed to reach 0.5% conjugated dienes): 1:9 fish nanoemulsions, T = 25 °C, [AOT] = 0.1 mM
From the text: Accelerated tests are commonly used to assess the relative stability of emulsions because of their reproducibility. In the present work, we used the AOCS official standard method Ti-1a-64 to determine the relative antioxidant efficiency of the antioxidants under a set of standardized conditions. For this purpose, we measured the formation of conjugated dienes (CD) with time following the procedure described in detail elsewhere. […] We, however, controlled their stability visually; no phase separation was detected.
We estimated the relative oxidative stability of fish oil nanoemulsions by controlling the extent of lipid oxidation under a set of standardized conditions. For this purpose, we measured the level of oxidation on the basis of the production of conjugated dienes (CD) with time. The method, identical to the AOCS official standard method Ti-1a-64, is rather sensitive and reproducible and suitable for monitoring the early stages of lipid oxidation. Figure 12A is illustrative of a typical oxidation kinetics experiment and where one can observe a constant small increase (lag time) up to a sudden increase in the formation of conjugated dienes (CD). The relative efficiency was assessed by determining the necessary time to reach an increase in CD production of 0.5%. Further details on the experimental procedure and calculations can be found elsewhere.

[3] = Distribution and effective interfacial concentrations of AOs in fish oil nanoemulsions, calculated from partition constants; type: physicochemical; details: for order of the percentages of AOs in the interfacial region (%AOI): at any ΦI value
From the text: The values of the partition constants PO^I and PW^I in Table 3 were used to estimate the distribution of the AOs in the intact nanoemulsions. Details of the calculations and the equations employed are not given here to keep focus and for the sake of clarity, but can be easily found elsewhere.
In Equation (5), nT represents the total number of moles of the antioxidant, VT the total volume of the emulsion, and ΦI is the interfacial volume fraction. To distinguish between the stoichiometric and effective concentrations, we employed square brackets, [ ], defined as molarity of total emulsion volume, and parenthesis, ( ), defined as molarity of the interfacial region, respectively. The reader must be aware that VI, is the sum of all of the interfacial volumes of all of the aggregates present in the system, and that it matches that of the total volume of the added surfactant. Emulsion droplets and other association colloids as micelles present in the system are broken and reformed at rates much faster than those of the relevant chemical reactions, allowing rapid transfer of materials between them. That is, they are in dynamic equilibrium. (5) (AOI)=nI/VI=nT(%AOI)/VI=nT/VT(%AOI)/VI/VT=[AOT](%AOI)/ΦI

[4] = Chemical kinetic method (pseudophase model) with the probe 16-ArN2^+ in intact fish oil-in-water nanoemulsions; type: physicochemical; details: intact 1:9 fish oil-in-water nanoemulsions, T = 25 °C; for 10^2 kI, interfacial rate constant for the reaction between 16ArN2^+ and AO: values given as 10^2 kI
Protocol: The distribution of HT and its derivatives was determined by using a chemical kinetic method, as have been published elsewhere based on the reaction between a chemical probe (16-ArN2^+, specifically localized at the interface) and the AOs. The changes detected in the observed rate constant for this reaction (kobs) at different surfactant volume fractions (ΦI) were evaluated according to the pseudophase kinetic model developed by Romsted and Bravo-Díaz and explained in detail elsewhere.
The chemical probe 16-ArN2^+ reacts, virtually, with any antioxidant as described elsewhere and the reaction can be monitored by UV-Vis with the aid of a specially developed derivatization protocol. […] The absorbance of the resulting azo dye was monitored at λ = 572 nm once diluted with a 50:50 (v:v) BuOH:EtOH mixture. This dilution step is critical and its purpose is to obtain an optically transparent, homogeneous solution. Details of the complete procedure have been published elsewhere.
Succinctly, after initiating the reaction between 16-ArN2^+ and the antioxidants in the intact emulsion, constant volumes (200 µL) of the nanoemulsion were extracted at given time periods and rapidly added to numbered glass tubes to quench the reaction. Because the quenching reaction is much faster than the reaction between 16-ArN2^+ and the antioxidants, the absorbance of the formed azo dye is proportional to the concentration of unreacted 16-ArN2^+ so that the decrease in absorbance of the azo dye with time can be used to determine kobs. For this purpose, we fitted the experimental (absorbance, time) pairs of data to the integrated first-order rate equation by using a non-linear least squares method provided by a commercial computer program. Figure 4 illustrates the typical variations of the absorbance of the azo dye versus time as determined in the intact fish oil-in-water nanoemulsions. The solid lines are the fitting curves to the integrated and linearized first-order equations.
The relationships between kobs and the partition constants of the AOs between the oil-interfacial, PO^I, and aqueous-interfacial, PW^I, regions are given by Equations (1)–(3), and the partition constants were estimated by fitting the variations of 1/kobs, with ΦI at constant stoichiometric concentration of the antioxidant ([AOT] = 2.5 × 10^−3 M), ΦW (ΦW = 0.9) and ΦO (ΦO = 0.1) as explained in detail elsewhere.
The experimental (kobs, ΦI) pairs of data were fitted to the equations derived from the pseudophase model Equations (1)–(3), which hold for very hydrophilic (Equation (1)) and very hydrophobic (Equation (2)) antioxidants and for those of intermediate hydrophobicity (3).

[5] = Shake-flask partition in binary stripped fish oil–water mixtures in the absence of emulsifier; type: physicochemical; details: binary 1:9 (v:v) fish oil:water mixture, 25 °C; for partition constant PW^O: average of four runs; for %AOO, percentage present in the oil phase / %AOW, percentage present in the aqueous phase: no emulsifier, pH 3.0 buffer
Protocol: The partition constants, PW^O, of HT and some of its esters were determined, by employing the shake-flask method, in binary stripped fish oil–water mixtures in the absence of emulsifier. Sets of four 1:9 (v:v, oil:water, total volume = 10 mL) binary mixtures, each one containing the same AO, were prepared by stirring the mixture at high speed for 1 min. HT and the C1–C3 derivatives were dissolved in the buffered aqueous solution; meanwhile, those with longer alkyl chains were dissolved in the fish oil phase. The final stoichiometric concentration of AOs was 3.5 mM in all samples. Mixtures were stirred at high speed for 2 min and then equilibrated at T = (25 ± 1) °C for at least 24 h in the dark. The resulting two phases were then divided by centrifugation. Concentrations of the AOs in each phase were estimated by interpolation in previously prepared calibration curves by employing UV-Vis (λ = 285 nm). Further details on the method have been published elsewhere.
The reported PW^O values in Table 2 are average of the four runs. The PW^O values for the more hydrophobic antioxidants are not reported because of the high uncertainty in their values, as the ratio of percentages may be susceptible to small errors in the determination of the values of the AO concentrations in the aqueous phase. In any case, PW^O values higher than 150 indicate that AOs are, essentially, water insoluble.

EC50 ([1]; t = 5 min) [mol AO/mol DPPH^●] | EC50 ([1]; t = 15 min) [mol AO/mol DPPH^●] | EC50 ([1]; t = 30 min) [mol AO/mol DPPH^●] | EC50 ([1]; t = 60 min) [mol AO/mol DPPH^●] | increase in the oxidative stability of nanoemulsion compared with the control ([2]; ΦI = 0.005) [times] | effective interfacial concentration relative to the stoichiometric concentration ([3]; lowest surfactant fraction ΦI = 0.005, constant o/w ratio) | partition constant PO^I (oil-interfacial) [4] | 10^2 kI, interfacial rate constant for the reaction between 16ArN2^+ and AO [4] [M^−1 s^−1] | partition constant PW^O [5] | %AOO, percentage present in the oil phase [5] [%] | %AOW, percentage present in the aqueous phase [5] [%] | partition constant PW^I (aqueous-interfacial) [4] | Structure (SMILES) | antioxidant efficiency order (time needed to reach 0.5% conjugated dienes) [2] | decrease in efficiency on an increase in ΦI of ∼8 times ([2]; increase in ΦI of ∼8 times) [times] | order of the percentages of AOs in the interfacial region (%AOI) [3]
0.323 ± 0.005 | 0.287 ± 0.004 | 0.279 ± 0.004 | 0.258 ± 0.004 | – | – | – | 14.2 ± 0.1 | 0.3 ± 0.1 | 3.01 | 96.99 | 71 ± 12 | OCCc1ccc(O)c(O)c1 [HT, Hydroxytyrosol] | C8 > C10 > C16 > C3 > HT >> control | – | %HTI < %C3I < %C16I < %C12I < %C10I < %C8I
0.331 ± 0.011 | 0.305 ± 0.006 | 0.302 ± 0.011 | 0.298 ± 0.007 | – | – | 13 ± 2 | 25.0 ± 0.8 | – | – | – | – | CCCCCCCCCCCCCCCC(=O)OCCc1ccc(O)c(O)c1 [C16] | C8 > C10 > C16 > C3 > HT >> control | – | %HTI < %C3I < %C16I < %C12I < %C10I < %C8I

Second part, the molecule before the results:

Structure (SMILES) | EC50 ([1]; t = 5 min) [mol AO/mol DPPH^●] | EC50 ([1]; t = 15 min) [mol AO/mol DPPH^●] | EC50 ([1]; t = 30 min) [mol AO/mol DPPH^●] | EC50 ([1]; t = 60 min) [mol AO/mol DPPH^●] | increase in the oxidative stability of nanoemulsion compared with the control ([2]; ΦI = 0.005) [times] | effective interfacial concentration relative to the stoichiometric concentration ([3]; lowest surfactant fraction ΦI = 0.005, constant o/w ratio) | partition constant PO^I (oil-interfacial) [4] | 10^2 kI, interfacial rate constant for the reaction between 16ArN2^+ and AO [4] [M^−1 s^−1] | partition constant PW^O [5] | %AOO, percentage present in the oil phase [5] [%] | %AOW, percentage present in the aqueous phase [5] [%] | partition constant PW^I (aqueous-interfacial) [4] | antioxidant efficiency order (time needed to reach 0.5% conjugated dienes) [2] | decrease in efficiency on an increase in ΦI of ∼8 times ([2]; increase in ΦI of ∼8 times) [times] | order of the percentages of AOs in the interfacial region (%AOI) [3]
CCCCCCCC(=O)OCCc1ccc(O)c(O)c1 [C8] | 0.295 ± 0.005 | 0.265 ± 0.005 | 0.256 ± 0.007 | 0.239 ± 0.003 | ~10 | about 100 times | 22 ± 2 | 21.0 ± 0.3 | – | – | – | – | C8 > C10 > C16 > C3 > HT >> control | ~1.5 | %HTI < %C3I < %C16I < %C12I < %C10I < %C8I
CCCCCCCCCCCC(=O)OCCc1ccc(O)c(O)c1 [C12] | 0.345 ± 0.005 | 0.319 ± 0.004 | 0.309 ± 0.011 | 0.294 ± 0.006 | – | – | 16 ± 2 | 25.3 ± 0.7 | – | – | – | – | – | – | %HTI < %C3I < %C16I < %C12I < %C10I < %C8I
O=COCCc1ccc(O)c(O)c1 [C1] | 0.338 ± 0.005 | 0.296 ± 0.003 | 0.288 ± 0.003 | 0.277 ± 0.003 | – | – | – | – | – | – | – | – | – | – | –
CCC(=O)OCCc1ccc(O)c(O)c1 [C3] | 0.345 ± 0.004 | 0.299 ± 0.002 | 0.289 ± 0.005 | 0.280 ± 0.003 | – | – | 28 ± 3 | 27.7 ± 4.7 | 7.8 ± 0.4 | 46.37 | 53.63 | 229 ± 40 | C8 > C10 > C16 > C3 > HT >> control | – | %HTI < %C3I < %C16I < %C12I < %C10I < %C8I
